Experimental data published in ChEMBL document CHEMBL1146950, “Matrix compare analysis discriminates subtle structural differences in a family of novel antiproliferative agents, diaryl-3-hydroxy-2,3,3a,10a-tetrahydrobenzo[b]cycylopenta[e]azepine-4,10(1H,5H)-diones” (2006).

How the values were obtained:
[1] = test system: HOP-62; experiment: Antiproliferative activity against HOP62 cell line; assay type: functional, Homo sapiens; design: unit not given here
[2] = test system: NCI-H460; experiment: Antiproliferative activity against NCI-H460 cell line; assay type: functional, Homo sapiens
[3] = molecular target: Epidermal growth factor receptor (Homo sapiens) (UniProt P00533); experiment: Inhibition of EGFR at 10 uM in presence of 0.1 uM ATP
Sequence of Epidermal growth factor receptor (Homo sapiens) (P00533 whole entry): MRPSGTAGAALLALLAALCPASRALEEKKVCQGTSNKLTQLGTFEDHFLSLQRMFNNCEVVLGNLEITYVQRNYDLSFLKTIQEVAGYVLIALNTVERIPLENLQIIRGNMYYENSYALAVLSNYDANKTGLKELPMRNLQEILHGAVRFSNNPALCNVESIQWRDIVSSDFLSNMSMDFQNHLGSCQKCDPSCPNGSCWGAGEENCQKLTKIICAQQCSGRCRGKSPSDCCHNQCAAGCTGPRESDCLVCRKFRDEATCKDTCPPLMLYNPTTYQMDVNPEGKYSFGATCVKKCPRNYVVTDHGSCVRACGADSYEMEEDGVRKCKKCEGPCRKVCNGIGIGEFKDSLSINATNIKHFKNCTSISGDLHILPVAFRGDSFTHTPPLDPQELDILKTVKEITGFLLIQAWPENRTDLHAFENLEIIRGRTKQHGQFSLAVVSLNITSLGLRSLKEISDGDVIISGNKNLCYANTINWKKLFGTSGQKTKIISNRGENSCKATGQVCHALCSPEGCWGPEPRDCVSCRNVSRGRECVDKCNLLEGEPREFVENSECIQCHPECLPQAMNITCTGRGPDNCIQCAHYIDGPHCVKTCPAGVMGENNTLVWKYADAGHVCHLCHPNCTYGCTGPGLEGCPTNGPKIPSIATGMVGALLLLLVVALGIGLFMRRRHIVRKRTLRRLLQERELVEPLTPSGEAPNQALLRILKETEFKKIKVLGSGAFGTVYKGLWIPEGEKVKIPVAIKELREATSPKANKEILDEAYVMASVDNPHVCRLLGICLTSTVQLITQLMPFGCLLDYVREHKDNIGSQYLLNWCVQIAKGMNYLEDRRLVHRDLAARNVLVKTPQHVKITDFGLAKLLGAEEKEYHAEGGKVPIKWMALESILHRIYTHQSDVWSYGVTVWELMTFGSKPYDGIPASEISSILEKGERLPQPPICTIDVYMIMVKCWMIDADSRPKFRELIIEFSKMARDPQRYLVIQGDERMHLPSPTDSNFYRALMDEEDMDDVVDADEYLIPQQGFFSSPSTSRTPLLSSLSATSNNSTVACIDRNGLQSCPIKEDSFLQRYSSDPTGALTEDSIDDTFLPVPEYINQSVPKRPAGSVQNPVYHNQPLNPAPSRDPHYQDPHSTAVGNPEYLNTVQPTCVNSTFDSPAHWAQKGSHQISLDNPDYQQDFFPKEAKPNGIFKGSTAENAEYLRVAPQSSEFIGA

[4] = molecular target: Receptor tyrosine-protein kinase erbB-2 (Homo sapiens) (UniProt P04626); experiment: Inhibition of ErbB2 at 10 uM in presence of 0.1 uM ATP
[5] = molecular target: Insulin-like growth factor 1 receptor (Homo sapiens) (UniProt P08069); experiment: Inhibition of IGF1R at 10 uM in presence of 0.1 uM ATP
Sequence of Insulin-like growth factor 1 receptor (Homo sapiens) (P08069 31-736 limits assumed): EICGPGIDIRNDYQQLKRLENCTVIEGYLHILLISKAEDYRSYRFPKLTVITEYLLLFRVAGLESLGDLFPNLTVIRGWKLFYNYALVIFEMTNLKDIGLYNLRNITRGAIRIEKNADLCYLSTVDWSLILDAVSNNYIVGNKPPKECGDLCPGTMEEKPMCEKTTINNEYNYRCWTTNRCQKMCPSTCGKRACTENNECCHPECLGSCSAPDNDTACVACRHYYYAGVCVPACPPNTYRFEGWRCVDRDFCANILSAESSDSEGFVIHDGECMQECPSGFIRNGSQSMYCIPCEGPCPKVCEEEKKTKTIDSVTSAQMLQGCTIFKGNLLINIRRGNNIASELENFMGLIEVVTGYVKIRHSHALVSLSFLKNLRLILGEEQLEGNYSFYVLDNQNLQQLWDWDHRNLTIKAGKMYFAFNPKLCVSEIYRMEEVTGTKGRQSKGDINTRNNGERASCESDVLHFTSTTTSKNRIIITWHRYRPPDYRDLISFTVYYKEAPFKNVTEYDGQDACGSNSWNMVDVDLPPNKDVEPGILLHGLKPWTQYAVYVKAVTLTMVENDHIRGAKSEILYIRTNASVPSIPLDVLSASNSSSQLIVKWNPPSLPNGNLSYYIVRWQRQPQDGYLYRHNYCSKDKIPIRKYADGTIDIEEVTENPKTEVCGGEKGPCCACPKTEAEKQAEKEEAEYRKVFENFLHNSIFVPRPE
Sequence of Insulin-like growth factor 1 receptor (Homo sapiens) (P08069 741-1367 limits assumed): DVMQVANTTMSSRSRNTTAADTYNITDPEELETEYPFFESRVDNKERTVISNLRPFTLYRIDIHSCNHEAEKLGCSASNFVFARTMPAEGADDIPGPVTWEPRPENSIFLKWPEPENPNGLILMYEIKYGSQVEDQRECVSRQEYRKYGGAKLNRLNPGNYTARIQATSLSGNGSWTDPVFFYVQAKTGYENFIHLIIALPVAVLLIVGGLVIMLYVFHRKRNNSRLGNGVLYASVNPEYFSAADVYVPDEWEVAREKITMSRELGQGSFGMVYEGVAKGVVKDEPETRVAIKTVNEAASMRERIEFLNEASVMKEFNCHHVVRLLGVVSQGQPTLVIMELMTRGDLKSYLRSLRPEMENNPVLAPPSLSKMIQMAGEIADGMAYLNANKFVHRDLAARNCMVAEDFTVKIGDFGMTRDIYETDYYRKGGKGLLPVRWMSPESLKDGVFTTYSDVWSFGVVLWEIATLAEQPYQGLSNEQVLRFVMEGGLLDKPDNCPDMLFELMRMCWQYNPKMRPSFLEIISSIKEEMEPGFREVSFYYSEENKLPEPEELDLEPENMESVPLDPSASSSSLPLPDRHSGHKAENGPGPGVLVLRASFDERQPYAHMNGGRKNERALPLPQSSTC

[6] = molecular target: Vascular endothelial growth factor receptor 1 (Homo sapiens) (UniProt P17948); experiment: Inhibition of VEGFR1 at 10 uM in presence of 0.1 uM ATP
Sequence of Vascular endothelial growth factor receptor 1 (Homo sapiens) (P17948 whole entry): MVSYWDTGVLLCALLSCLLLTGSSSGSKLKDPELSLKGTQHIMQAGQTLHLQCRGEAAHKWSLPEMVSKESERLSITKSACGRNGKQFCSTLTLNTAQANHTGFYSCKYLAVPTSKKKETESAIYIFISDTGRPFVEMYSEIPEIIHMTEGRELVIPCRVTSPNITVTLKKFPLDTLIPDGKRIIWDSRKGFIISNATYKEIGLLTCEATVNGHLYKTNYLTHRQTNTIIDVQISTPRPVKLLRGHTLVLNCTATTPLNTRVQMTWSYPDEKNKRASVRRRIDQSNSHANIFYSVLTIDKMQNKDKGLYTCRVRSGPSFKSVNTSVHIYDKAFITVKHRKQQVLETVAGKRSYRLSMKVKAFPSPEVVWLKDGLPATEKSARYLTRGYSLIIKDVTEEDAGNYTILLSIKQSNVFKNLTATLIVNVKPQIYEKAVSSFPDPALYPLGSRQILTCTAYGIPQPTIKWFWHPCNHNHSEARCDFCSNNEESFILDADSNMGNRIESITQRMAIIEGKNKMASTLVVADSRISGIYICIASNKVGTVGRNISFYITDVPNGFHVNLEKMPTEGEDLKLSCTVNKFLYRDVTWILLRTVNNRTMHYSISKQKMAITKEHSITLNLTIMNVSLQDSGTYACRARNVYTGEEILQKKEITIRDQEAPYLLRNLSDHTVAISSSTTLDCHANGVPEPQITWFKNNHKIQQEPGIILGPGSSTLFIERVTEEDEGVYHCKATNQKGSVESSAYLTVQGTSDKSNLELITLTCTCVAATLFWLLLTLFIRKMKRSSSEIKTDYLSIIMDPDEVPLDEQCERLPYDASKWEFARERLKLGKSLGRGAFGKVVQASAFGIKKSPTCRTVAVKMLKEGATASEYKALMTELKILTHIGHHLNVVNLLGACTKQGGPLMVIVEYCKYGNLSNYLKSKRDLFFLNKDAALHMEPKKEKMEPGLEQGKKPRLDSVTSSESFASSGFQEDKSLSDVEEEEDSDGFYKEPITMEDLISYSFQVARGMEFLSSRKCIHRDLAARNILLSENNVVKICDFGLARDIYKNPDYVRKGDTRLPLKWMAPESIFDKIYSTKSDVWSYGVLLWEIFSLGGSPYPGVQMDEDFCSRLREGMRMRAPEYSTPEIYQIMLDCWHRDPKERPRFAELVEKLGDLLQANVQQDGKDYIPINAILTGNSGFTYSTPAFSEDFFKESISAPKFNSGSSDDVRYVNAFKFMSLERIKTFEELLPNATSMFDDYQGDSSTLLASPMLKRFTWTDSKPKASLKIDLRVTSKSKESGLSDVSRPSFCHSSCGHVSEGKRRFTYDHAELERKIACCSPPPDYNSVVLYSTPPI

[7] = molecular target: Vascular endothelial growth factor receptor 2 (Homo sapiens) (UniProt P35968); experiment: Inhibition of VEGFR2 at 10 uM in presence of 0.1 uM ATP
[8] = molecular target: Angiopoietin-1 receptor (Homo sapiens) (UniProt Q02763); experiment: Inhibition of TIE2 at 10 uM in presence of 0.1 uM ATP
Sequence of Angiopoietin-1 receptor (Homo sapiens) (Q02763 whole entry): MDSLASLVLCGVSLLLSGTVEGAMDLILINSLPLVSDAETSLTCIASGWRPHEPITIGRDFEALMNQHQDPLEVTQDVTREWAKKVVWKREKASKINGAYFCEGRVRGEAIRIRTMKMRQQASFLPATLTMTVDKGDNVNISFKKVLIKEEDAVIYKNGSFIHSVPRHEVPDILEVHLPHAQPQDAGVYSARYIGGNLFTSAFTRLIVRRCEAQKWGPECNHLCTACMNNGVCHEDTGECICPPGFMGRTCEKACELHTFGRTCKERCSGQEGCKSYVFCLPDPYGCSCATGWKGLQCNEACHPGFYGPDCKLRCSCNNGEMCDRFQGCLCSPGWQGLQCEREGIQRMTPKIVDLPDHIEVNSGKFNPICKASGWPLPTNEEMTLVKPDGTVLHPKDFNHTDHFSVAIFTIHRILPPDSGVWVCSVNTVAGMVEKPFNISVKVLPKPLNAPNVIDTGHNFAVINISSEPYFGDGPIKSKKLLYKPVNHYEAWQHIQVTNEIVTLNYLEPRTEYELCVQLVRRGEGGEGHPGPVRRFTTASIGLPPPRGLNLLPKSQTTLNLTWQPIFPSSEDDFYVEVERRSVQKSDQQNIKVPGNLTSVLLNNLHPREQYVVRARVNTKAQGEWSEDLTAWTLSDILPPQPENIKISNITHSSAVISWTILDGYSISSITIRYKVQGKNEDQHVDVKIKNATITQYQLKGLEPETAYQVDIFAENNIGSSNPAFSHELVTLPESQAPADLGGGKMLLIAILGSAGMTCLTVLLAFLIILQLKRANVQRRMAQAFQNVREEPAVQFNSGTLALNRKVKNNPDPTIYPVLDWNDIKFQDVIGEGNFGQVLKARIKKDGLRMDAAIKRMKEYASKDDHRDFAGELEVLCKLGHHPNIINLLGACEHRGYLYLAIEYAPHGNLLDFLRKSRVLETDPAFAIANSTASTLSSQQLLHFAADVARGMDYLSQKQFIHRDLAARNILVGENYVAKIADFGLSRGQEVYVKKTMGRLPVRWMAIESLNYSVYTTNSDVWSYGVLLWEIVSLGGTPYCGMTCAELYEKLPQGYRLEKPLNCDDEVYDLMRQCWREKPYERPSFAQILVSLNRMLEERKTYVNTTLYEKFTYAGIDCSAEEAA

[9] = molecular target: T1, Ephrin type-B receptor 4 (Homo sapiens) (UniProt P54760); experiment: Inhibition of EPHB4 at 10 uM in presence of 0.1 uM ATP
T1 sequence (whole entry): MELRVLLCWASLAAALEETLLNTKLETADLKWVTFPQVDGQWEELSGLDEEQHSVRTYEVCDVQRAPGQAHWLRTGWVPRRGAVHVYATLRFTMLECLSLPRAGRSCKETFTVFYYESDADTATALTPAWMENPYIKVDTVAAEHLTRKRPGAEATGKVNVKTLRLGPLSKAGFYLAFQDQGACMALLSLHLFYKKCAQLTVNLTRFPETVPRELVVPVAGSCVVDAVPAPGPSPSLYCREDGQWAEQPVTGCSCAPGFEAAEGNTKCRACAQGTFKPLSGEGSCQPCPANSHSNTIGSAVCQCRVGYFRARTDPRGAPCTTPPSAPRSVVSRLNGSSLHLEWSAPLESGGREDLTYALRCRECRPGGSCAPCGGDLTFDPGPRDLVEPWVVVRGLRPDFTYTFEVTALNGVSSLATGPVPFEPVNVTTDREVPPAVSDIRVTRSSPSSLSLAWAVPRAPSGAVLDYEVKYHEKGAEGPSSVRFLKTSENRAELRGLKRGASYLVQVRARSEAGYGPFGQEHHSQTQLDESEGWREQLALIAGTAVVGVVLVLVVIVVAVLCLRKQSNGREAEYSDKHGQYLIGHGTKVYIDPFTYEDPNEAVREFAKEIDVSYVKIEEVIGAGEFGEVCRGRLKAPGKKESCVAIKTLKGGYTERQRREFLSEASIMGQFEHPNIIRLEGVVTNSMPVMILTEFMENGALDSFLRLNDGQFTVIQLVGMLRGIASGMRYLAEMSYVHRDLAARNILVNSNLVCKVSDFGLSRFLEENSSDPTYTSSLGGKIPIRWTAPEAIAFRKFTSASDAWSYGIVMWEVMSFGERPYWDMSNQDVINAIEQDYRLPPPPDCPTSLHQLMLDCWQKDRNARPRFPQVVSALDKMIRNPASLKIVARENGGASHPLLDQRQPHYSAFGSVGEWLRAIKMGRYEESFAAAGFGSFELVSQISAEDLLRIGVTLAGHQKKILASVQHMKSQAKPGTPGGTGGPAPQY

## O=C1c2ccccc2NC(=O)[C@H]2[C@H]1C[C@@H](c1ccc(Cl)cc1)[C@]2(O)c1ccccc1
[1]
  pGI50: 5.6
[2]
  pGI50: 5.4 M

## O=C1c2ccccc2NC(=O)[C@H]2[C@H]1[C@@H](c1ccccc1)C[C@]2(O)c1cccc(Cl)c1
[1]
  pGI50: >4
[2]
  pGI50: 5.7 M

## O=C1c2ccccc2NC(=O)[C@H]2[C@H]1[C@@H](c1ccc(Cl)cc1)C[C@]2(O)c1ccccc1
[1]
  pGI50: >4
[2]
  pGI50: 5 M

## COc1ccc([C@H]2C[C@](O)(c3ccccc3)[C@H]3C(=O)Nc4ccccc4C(=O)[C@H]23)cc1
[1]
  pGI50: >4
[2]
  pGI50: 5.1 M

## COc1ccc([C@@H]2C[C@H]3C(=O)c4ccccc4NC(=O)[C@@H]3[C@@]2(O)c2ccccc2)cc1
[1]
  pGI50: 5.6
[2]
  pGI50: 4.9 M

## Cc1ccc([C@@H]2C[C@H]3C(=O)c4ccccc4NC(=O)[C@@H]3[C@@]2(O)c2ccc(C)cc2)cc1
[1]
  pGI50: 5.2
[2]
  pGI50: 5.4 M

## O=C1c2ccccc2NC(=O)[C@H]2[C@H]1C[C@@H](c1cccc(Cl)c1)[C@]2(O)c1ccccc1
[1]
  pGI50: 5.1
[2]
  pGI50: 4.6 M

## O=C1c2ccccc2NC(=O)[C@H]2[C@H]1[C@@H](c1ccccc1)C[C@]2(O)c1ccc2c(c1)OCO2
[1]
  pGI50: 4.1
[2]
  pGI50: 5.6 M

## COc1ccc([C@H]2C[C@](O)(c3cccc(Cl)c3)[C@H]3C(=O)Nc4ccccc4C(=O)[C@H]23)cc1
[1]
  pGI50: >4
[2]
  pGI50: 5 M

## O=C1c2ccccc2NC(=O)[C@H]2[C@H]1[C@@H](c1ccccc1)C[C@]2(O)c1ccc2ccccc2c1
[1]
  pGI50: >4
[2]
  pGI50: 6.7 M

## O=C1c2ccccc2NC(=O)[C@H]2[C@H]1C[C@@H](c1ccccc1)[C@]2(O)c1ccccc1
[1]
  pGI50: 5.4
[2]
  pGI50: 5.4 M

## O=C1c2ccccc2NC(=O)[C@H]2[C@H]1[C@@H](c1cccc(Cl)c1)C[C@]2(O)c1ccccc1
[1]
  pGI50: >4
[2]
  pGI50: 5.2 M
[3]
  inhibition: > 50%
[4]
  inhibition: > 50%
[5]
  inhibition: > 50%
[6]
  inhibition: > 50%
[7]
  inhibition: > 50%
[8]
  inhibition: > 50%
[9]
  inhibition: > 50%

## Cc1ccc([C@@H]2C[C@H]3C(=O)c4ccccc4NC(=O)[C@@H]3[C@@]2(O)c2ccccc2)cc1
[1]
  pGI50: 5.6
[2]
  pGI50: 5.1 M

## Cc1ccc([C@@]2(O)[C@H](c3ccc(Cl)cc3)C[C@H]3C(=O)c4ccccc4NC(=O)[C@@H]32)cc1
[1]
  pGI50: 5.3
[2]
  pGI50: 5.7 M

## Cc1ccc([C@@]2(O)[C@H](c3ccccc3)C[C@H]3C(=O)c4ccccc4NC(=O)[C@@H]32)cc1
[1]
  pGI50: 5.4
[2]
  pGI50: 4.7 M
